Measurements as given in patent publication US20240181125A1, “COMPOSITIONS AND METHODS FOR SCARLESS WOUND HEALING IN DIABETES” (Washington University, priority 2022, published 2024).
Bridge positions count the residues as written; N and C are the ends. Peptide text beside a SMILES is read from it. * marks the point of attachment. FITC = O=C1OC2(c3ccc(O)cc3Oc3cc(O)ccc32)c2ccc(NC(=S)*)cc21

Key:
HDF = experiment: Cytotoxicity of PTβR2I on dermal fibroblasts; assay type: cell-based, human; set-up: dose or concentration left out as unconfirmed; settings: 1 to 100
HaCaTs [1] = experiment: Cell proliferation (dsDNA) under high glucose and TGFβ1, HaCaT; assay type: cell-based, human; settings: high glucose, TGFβ1 10 ng/ml, PTβR2I 10 μg/mL; p<0.05
Experimental: (§1) HDFs, HaCaTs, and HAECs were seeded in 96-well plates at respective densities of 1.5×10^4 cells/mL, 2×10^4 cells/mL, and 2×10^4 cells/mL. High glucose (4.5 g/L) basal medium with 1% P/S was used for the culture. After 24 hours, TGFβ1 (10 ng/ml) or TGFβ1 (10 ng/ml)/PTβR2I (10 μg/mL) was added to the medium. The culture continued for three days. The medium was then replaced by papain solution and incubated at 60° C. for 24 hours. The dsDNA content was tested using a Quant-iT™ PicoGreen dsDNA Assay Kit (Invitrogen).

HDFs [2] = experiment: Cell proliferation (dsDNA) under high glucose and TGFβ1, HDF; assay type: cell-based, human; settings: high glucose, TGFβ1 10 ng/ml, PTβR2I 10 μg/mL; p<0.001
Experimental: as §1

HAECs [3] = experiment: Cell proliferation (dsDNA) under high glucose and TGFβ1, HAEC; assay type: cell-based, human; settings: high glucose, TGFβ1 10 ng/ml, PTβR2I 10 μg/mL; p<0.05
Experimental: as §1

HaCaTs [4] = experiment: 2D scratch migration assay, HaCaT; assay type: cell-based, human; settings: high glucose and TGFβ1, 48 hours
Experimental: (§2) HDFs, HaCaTs, and HAECs were cultured in 6-well plates using serum-free high glucose (4.5 g/L) basal medium with 1% P/S. After the cells reached confluency, a 200-μL pipet tip was used to scrape the cell monolayer. Then 3 mL of medium containing TGFβ1 (10 ng/ml) or TGFβ1 (10 ng/ml)/PTβR2I (10 μg/mL) was added to the wells. The cells were imaged at predetermined time points using a bright-field microscope. The distances between the scratch walls were measured using ImageJ to calculate the migration ratio

HDFs [5] = experiment: 2D scratch migration assay, HDF; assay type: cell-based, human; settings: high glucose and TGFβ1, 72 hours
Experimental: as §2

HAECs [6] = experiment: 2D scratch migration assay, HAEC; assay type: cell-based, human; settings: high glucose and TGFβ1, 36 hours
Experimental: as §2

HAECs [7] = experiment: mRNA expression (RT-PCR), HAECs; assay type: cell-based, human; settings: high glucose and TGFβ1
Experimental: (§3) To determine the mRNA expression of the cells (HDFs, HaCaTs, and HAECs) treated with TGFβ1 (10 ng/ml) or TGFβ1 (10 ng/ml)/PTβR2I (10 μg/mL) under high glucose conditions, RNA was extracted using Trizol (Invitrogen) and reverse transcribed using a cDNA synthesis kit (Applied Biosystems). Gene expression was performed by real-time RT-PCR, using Maxima SYBR Green/Fluorescein Master Mix (Thermofisher) and selected primer pairs, shown in Table 1 below. β-actin served as the housekeeping gene. The ΔΔCt method was used for data analysis.

HaCaTs [8] = experiment: mRNA expression (RT-PCR), HaCaTs; assay type: cell-based, human; settings: high glucose and TGFβ1
Experimental: as §3

[9] = In vitro release of peptide from hydrogel; assay type: physicochemical; settings: 21-day study, 37° C., DPBS; loadings 10, 20, 50 μg/mL
Experimental: To characterize the ECG release properties of the NIPAAm-based hydrogels disclosed herein, the following experiments were conducted. Hydrogel samples were synthesized with varying levels of ECG loading: 10 μg/mL, 20 μg/mL, and 50 μg/mL. The cumulative release of ECG from the hydrogel samples was assessed over a three-week period.
Wound dressings were fabricated by encapsulating PTβR2I in the hydrogel solution at 4° C. Briefly, PTβR2I solution was mixed with 6 wt. % hydrogel solution to reach final PTβR2I concentrations of 10 μg/mL, 20 μg/mL and 50 μg/mL. The mixtures were stirred at 4° C. for 12 hours. To determine PTβR2I release kinetics, the mixtures were first incubated at 37° C. to gel. After 1 hour, the supernatant was replaced by a release medium (DPBS with 1% P/S). The medium was then collected at pre-determined time points for 21 days, and a fresh release medium was added after each collection. The concentration of the released PTβR2I was determined by measuring the fluorescence intensity and calculating the corresponding concentration using a standard curve. The bioactivity of the released PTβR2I was evaluated by its ability to bind to the TβR2 on the HDFs. […] After 2 hours of incubation, the cells were washed three times with DPBS, and the fluorescence intensity was measured using a microplate reader (excitation/emission=485/535 nm).

TβR2 on the HDFs = biological target: T1, TβR2 on the HDFs (Homo sapiens, UniProt P37173); experiment: Bioactivity of released PTβR2I (cell binding assay on HDFs); assay type: cell-based; settings: released on days 3, 8, 14; loadings 10, 20, 50 μg/mL
T1 construct: host or cells: human dermal fibroblasts (HDFs)
T1 sequence (P37173 23-567): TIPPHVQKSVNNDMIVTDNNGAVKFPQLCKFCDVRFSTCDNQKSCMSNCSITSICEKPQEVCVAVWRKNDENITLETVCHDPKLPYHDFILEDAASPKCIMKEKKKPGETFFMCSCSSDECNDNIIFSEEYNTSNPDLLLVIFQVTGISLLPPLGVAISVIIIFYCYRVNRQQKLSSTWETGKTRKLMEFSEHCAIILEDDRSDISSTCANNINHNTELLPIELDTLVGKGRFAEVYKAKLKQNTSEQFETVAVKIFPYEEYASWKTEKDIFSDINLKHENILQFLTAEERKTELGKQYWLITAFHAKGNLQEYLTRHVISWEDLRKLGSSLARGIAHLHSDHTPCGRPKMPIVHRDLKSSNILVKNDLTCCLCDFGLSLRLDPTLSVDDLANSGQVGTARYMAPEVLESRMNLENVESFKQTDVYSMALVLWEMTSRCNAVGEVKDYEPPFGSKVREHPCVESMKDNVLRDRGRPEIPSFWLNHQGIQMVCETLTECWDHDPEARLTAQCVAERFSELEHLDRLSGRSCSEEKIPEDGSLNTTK
Experimental: Wound dressings were fabricated by encapsulating PTβR2I in the hydrogel solution at 4° C. Briefly, PTβR2I solution was mixed with 6 wt. % hydrogel solution to reach final PTβR2I concentrations of 10 μg/mL, 20 μg/mL and 50 μg/mL. The mixtures were stirred at 4° C. for 12 hours. To determine PTβR2I release kinetics, the mixtures were first incubated at 37° C. to gel. After 1 hour, the supernatant was replaced by a release medium (DPBS with 1% P/S). The medium was then collected at pre-determined time points for 21 days, and a fresh release medium was added after each collection. The concentration of the released PTβR2I was determined by measuring the fluorescence intensity and calculating the corresponding concentration using a standard curve. The bioactivity of the released PTβR2I was evaluated by its ability to bind to the TβR2 on the HDFs. The collected released medium was added to the culture medium of HDFs that were seeded in a 96-well plate. After 2 hours of incubation, the cells were washed three times with DPBS, and the fluorescence intensity was measured using a microplate reader (excitation/emission=485/535 nm).

wounds of db/+ mice = experiment: Wound assay on non-diabetic db/+ mice; settings: mouse, in vivo
Experimental: The same wound assay was performed on db/+ mice and monitored the wound closure for eight days (FIG. 11A). The No-treatment, Gel, and PTβR2I/Gel groups all had similar healing rates, with wound sizes less than 10% of the original after 8 days (FIG. 11B and C). To delineate the mechanism, in vitro immunoblotting was performed on dermal fibroblasts under normal glucose conditions that mimicked the microenvironment of db/+ mice (FIG. 11D).

Structure (SMILES): CC(C)C[C@@H]1NC(=O)CNC(=O)[C@@H](NC(=O)[C@@H](N)CCC(=O)O)CSSC[C@@H](C(=O)N[C@@H](CCCCNC(=S)Nc2ccc3c(c2)C(=O)OC32c3ccc(O)cc3Oc3cc(O)ccc32)C(=O)O)NC(=O)[C@H](CC(C)C)NC(=O)[C@H](CCCNC(=N)N)NC(=O)[C@H](Cc2c[nH]c3ccccc23)NC(=O)[C@H](C(C)C)NC(=O)[C@H](CCCNC(=N)N)NC(=O)[C@H](CC(=O)O)NC(=O)[C@@H]2CCCN2C(=O)[C@H](CCCNC(=N)N)NC(=O)CNC(=O)[C@H](C(C)C)NC(=O)[C@@H]2CCCN2C(=O)[C@H](CC(C)C)NC1=O [PTβR2I, ECGLLPVGRPDRVWRLCK-FITC] (H-ECGLLPVGRPDRVWRLCK(FITC)-OH; disulfide 2-17; N-terminus and C-terminus assumed)
- cell viability (HDF): no decrease in viability
- proliferation (dsDNA, day 3) (HaCaTs [1]): Significantly improved proliferation
- proliferation (dsDNA, day 3) (HDFs [2]): Significantly improved proliferation
- proliferation (dsDNA, day 3) (HAECs [3]): Significantly improved proliferation
- migration (HaCaTs [4]): significantly higher number of cells had migrated
- migration (HDFs [5]): significantly higher number of cells had migrated
- migration (HAECs [6]): significantly higher number of cells had migrated
- HGF gene expression (HAECs [7]): significantly enhanced
- VEGFA gene expression (HAECs [7]): significantly enhanced
- IL1B mRNA expression (HaCaTs [8]): significantly reduced
- IL6 mRNA expression (HaCaTs [8]): significantly reduced
- release profile from wound dressing [9]: initial burst release was observed on the first day, followed by a slower and sustained release until day 21
- bioactivity of released PTβR2I (TβR2 on the HDFs): remained bioactive
- efficacy on db/+ mice (wounds of db/+ mice): not effective
